According to patent publication US4906565A, “Method for the selective detection of microbial nucleotides” (Minnesota Mining and Manufacturing Company, priority 1986, dated 1990):

How the values were obtained:
Format in all cases: biochemical
hexokinase = assay: Inhibition of hexokinase by PCMPSA, bioluminescent ATP assay; details: PCMPSA 1.0 mM
Procedure: (§1) Protocol: Eight samples were prepared using materials described above and previously, as shown in TABLE 7-1 and incubated for various periods of time (i.e., 0, 5, 10 and […]) before aliquots were taken and assayed as described.
(§2) Protocol: Increasing concentrations of hexokinase, with and without PCMPSA were prepared according to TABLE 8-1 using materials described above and previously.

acetate kinase = molecular target: T1, acetate kinase (Escherichia coli, UniProt P0A6A3); assay: Inhibition of acetate kinase by PCMPSA; details: PCMPSA 0.5 mM
T1 construct: purchased Boehringer Mannheim
T1 sequence (P0A6A3 1-400): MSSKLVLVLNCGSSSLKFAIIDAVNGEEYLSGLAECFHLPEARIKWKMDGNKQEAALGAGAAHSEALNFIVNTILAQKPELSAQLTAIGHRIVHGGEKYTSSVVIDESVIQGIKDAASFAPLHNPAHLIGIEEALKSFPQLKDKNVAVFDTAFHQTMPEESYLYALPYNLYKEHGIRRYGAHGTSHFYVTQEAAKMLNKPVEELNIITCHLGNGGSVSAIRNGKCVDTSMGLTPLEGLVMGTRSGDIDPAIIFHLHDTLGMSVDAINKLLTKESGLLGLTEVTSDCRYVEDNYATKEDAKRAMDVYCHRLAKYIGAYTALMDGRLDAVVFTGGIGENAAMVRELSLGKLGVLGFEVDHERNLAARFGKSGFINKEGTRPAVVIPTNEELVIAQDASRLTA
Procedure: Acetate kinase was added to initiate enzyme activity. […] ATP in those aliquots was assayed as described.

firefly luciferase [1] = molecular target: T2, firefly luciferase (Photinus pyralis, UniProt P08659); assay: Effect of inhibitor on the bioluminescent assay of ATP
T2 construct: purchased Lumac/3M Lumit PM

glycerokinase = assay: Inhibition of glycerokinase by PCMPSA in milk / orange juice samples; details: PCMPSA 0.5 mM; for % Control: control = same without glycerol; for RLU: milk/FRA, ATP added in SRA, 15 seconds
Procedure: Protocol: Samples were prepared containing: 1000 μl milk (local distributor, half-cream, sterilized); 800 μl FRA, 200 μl of a commercially available first releasing agent which is prepared in buffer for use with samples such as fruit juices (F-NRS, Lumac/3M); and 2.45 mM MgSO4. Glycerol, if present, was at a final concentration of 1.47 mM. ATP (10 mg/ml) was added in SRA to begin each assay, and PCMPSA if present, was also in that SRA aliquot in an amount sufficient to yield a final concentration of 0.5 mM.
(§3) To begin the assay, 100 μl of SRA/ATP ±PCMPSA was added to 50 μl of the appropriate sample. After 15 seconds (the period normally allowed for microbial nucleotide extraction using SRA) 100 μl Luciferase-luciferin solution was added and ATP was measured as described earlier.
(§4) Protocol: Samples with orange juice were prepared with 500 μl orange juice (Riedel, Netherlands, no preservatives, pasteurized), 500 μl buffered FRA, 3 mM glycerol, and with or without 0.5 mM PCMPSA. These were incubated over 0, 5, 10 and 20 minutes at four different glycerokinase concentrations.
(§5) Samples with milk were prepared similarly, but using 500 μl raw milk (fresh, local farmer) and 500 μl FRA in place of buffered FRA.

firefly luciferase [2] = molecular target: T2, firefly luciferase; assay: Effect of inhibitor on the bioluminescent assay of ATP; remark: listed apart in the source
Procedure: Assay: from each sample triplicate 100 μl aliquots were taken. In those aliquots ATP was measured as described.
Assay: from each sample triplicate 100 μl aliquots were taken. ATP in those aliquots was measured as described.
Assay: From each sample triplicate 100 μl aliquots were taken and ATP was measured as described.
as §1, §2

[3] = ATP inactivation by glycerokinase or apyrase in milk / orange juice samples; details: apyrase 0.096 U/mL; raw milk:FRA 500:500 μl
Procedure: Protocol: Four samples were prepared as shown in TABLE 11-1 using materials described above and earlier, and aliquots taken at 0, 2.5, 5, 10 and 20 minutes. […]
as §3, §4, §5

[4] = acetate kinase 1.7 U/ml, magnesium acetate 3 mM, FRA
[5] = PCMPSA 1.0 mM alone, no hexokinase, buffer
[6] = PCMPSA 1.0 mM alone, no hexokinase, in SRA
[7] = glycerokinase 0.42 U/ml, glycerol 1.47 mM
[8] = glycerokinase 1.04 U/ml, glycerol 1.47 mM
[9] = glycerokinase 2.06 U/ml, glycerol 1.47 mM
[10] = orange juice, glycerokinase 0.85 U/ml
[11] = orange juice, glycerokinase 2.12 U/ml
[12] = orange juice, glycerokinase 4.25 U/ml
[13] = raw milk, glycerokinase 0.85 U/ml
[14] = raw milk, glycerokinase 2.12 U/ml
[15] = raw milk, glycerokinase 4.25 U/ml

T2 sequence (P08659 whole entry): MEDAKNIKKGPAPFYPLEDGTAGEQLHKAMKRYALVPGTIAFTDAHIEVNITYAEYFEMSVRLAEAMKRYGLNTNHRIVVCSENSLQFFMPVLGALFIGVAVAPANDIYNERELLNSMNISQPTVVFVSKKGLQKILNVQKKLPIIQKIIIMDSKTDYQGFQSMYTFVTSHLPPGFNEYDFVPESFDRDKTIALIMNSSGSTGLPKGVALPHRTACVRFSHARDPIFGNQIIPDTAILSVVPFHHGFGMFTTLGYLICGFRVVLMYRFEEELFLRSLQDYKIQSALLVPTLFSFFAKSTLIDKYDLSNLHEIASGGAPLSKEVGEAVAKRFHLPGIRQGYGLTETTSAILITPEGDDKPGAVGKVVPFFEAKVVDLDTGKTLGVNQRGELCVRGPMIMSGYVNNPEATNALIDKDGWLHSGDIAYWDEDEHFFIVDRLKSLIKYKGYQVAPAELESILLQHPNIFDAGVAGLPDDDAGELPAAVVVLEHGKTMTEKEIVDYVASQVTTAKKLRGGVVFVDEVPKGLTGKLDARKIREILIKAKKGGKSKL

O=S(=O)(O)c1cc[c]([Hg][Cl])cc1 [PCMPSA, p-chloromercuriphenylsulfonic acid]
inhibition of hexokinase (conclusion in words) (hexokinase; buffer): at least partly inhibited
RLU 5 min. (hexokinase; hexokinase 0.14 U/ml, buffer): 25884 RLU
RLU 10 min. (hexokinase; hexokinase 0.14 U/ml, buffer): 23717 RLU
RLU 15 min. (hexokinase; hexokinase 0.14 U/ml, buffer): 24771 RLU
RLU 5 min. (hexokinase; hexokinase 0.14 U, in SRA): 15397 RLU
RLU 10 min. (hexokinase; hexokinase 0.14 U, in SRA): 15221 RLU
RLU 5 min. (hexokinase; hexokinase 0.28 U/ml, buffer): 19116 RLU
RLU 10 min. (hexokinase; hexokinase 0.28 U/ml, buffer): 18228 RLU
RLU 15 min. (hexokinase; hexokinase 0.28 U/ml, buffer): 16919 RLU
RLU 5 min. (hexokinase; hexokinase 0.28 U, in SRA): 11674 RLU
RLU 10 min. (hexokinase; hexokinase 0.28 U, in SRA): 12473 RLU
RLU 5 min. (hexokinase; hexokinase 0.70 U/ml, buffer): 13353 RLU
RLU 10 min. (hexokinase; hexokinase 0.70 U/ml, buffer): 11760 RLU
RLU 15 min. (hexokinase; hexokinase 0.70 U/ml, buffer): 9375 RLU
RLU 5 min. (hexokinase; hexokinase 0.70 U, in SRA): 4212 RLU
RLU 10 min. (hexokinase; hexokinase 0.70 U, in SRA): 3011 RLU
inhibition of hexokinase (conclusion in words) (hexokinase; in the presence of SRA): sufficiently inhibited
inhibition of acetate kinase (conclusion in words) (acetate kinase): fairly effective
RLU 0 min. (acetate kinase; [4]): 4878 RLU
RLU 5 min. (acetate kinase; [4]): 2911 RLU
RLU 10 min. (acetate kinase; [4]): 2263 RLU
RLU 15 min. (acetate kinase; [4]): 2362 RLU
RLU 0 min. (firefly luciferase [1]; [5]): 29494 RLU
RLU 10 min. (firefly luciferase [1]; [6]): 25284 RLU
interference with the bioluminescent assay of ATP (conclusion in words) (firefly luciferase [1]; PCMPSA alone, in SRA): only very slight interference, if at all
% Control (glycerokinase; [7]): 91%
RLU (glycerokinase; [7]): 26407 RLU
RLU (glycerokinase; glycerokinase 0.42 U/ml, no glycerol (control)): 28957 RLU
% Control (glycerokinase; [8]): 78%
RLU (glycerokinase; [8]): 17213 RLU
RLU (glycerokinase; glycerokinase 1.04 U/ml, no glycerol (control)): 21901 RLU
% Control (glycerokinase; [9]): 58%
RLU (glycerokinase; [9]): 6404 RLU
RLU (glycerokinase; glycerokinase 2.06 U/ml, no glycerol (control)): 15129 RLU
inhibition of glycerokinase (conclusion in words) (glycerokinase; orange juice and milk, glycerokinase up to 4.25 U/ml): sufficient to inhibit even the highest concentrations of enzyme used
RLU after 0 min (glycerokinase; [10]): 142369 RLU
RLU after 5 min (glycerokinase; [10]): 145464 RLU
RLU after 10 min (glycerokinase; [10]): 150927 RLU
RLU after 20 min (glycerokinase; [10]): 155082 RLU
RLU after 0 min (glycerokinase; [11]): 152487 RLU
RLU after 5 min (glycerokinase; [11]): 143354 RLU
RLU after 10 min (glycerokinase; [11]): 132269 RLU
RLU after 20 min (glycerokinase; [11]): 151899 RLU
RLU after 0 min (glycerokinase; [12]): 116232 RLU
RLU after 5 min (glycerokinase; [12]): 131999 RLU
RLU after 10 min (glycerokinase; [12]): 123137 RLU
RLU after 20 min (glycerokinase; [12]): 125784 RLU
RLU after 0 min (glycerokinase; [13]): 1382 RLU
RLU after 5 min (glycerokinase; [13]): 1494 RLU
RLU after 10 min (glycerokinase; [13]): 1348 RLU
RLU after 20 min (glycerokinase; [13]): 1280 RLU
RLU after 0 min (glycerokinase; [14]): 829 RLU
RLU after 5 min (glycerokinase; [14]): 1340 RLU
RLU after 10 min (glycerokinase; [14]): 1342 RLU
RLU after 20 min (glycerokinase; [14]): 1233 RLU
RLU after 0 min (glycerokinase; [15]): 1173 RLU
RLU after 5 min (glycerokinase; [15]): 1314 RLU
RLU after 10 min (glycerokinase; [15]): 1374 RLU
RLU after 20 min (glycerokinase; [15]): 1028 RLU
RLU 10 min. (firefly luciferase [2]; [5]): 29569 RLU
RLU 15 min. (firefly luciferase [2]; [5]): 29742 RLU
RLU 0 min. (firefly luciferase [2]; [6]): 26457 RLU
interference with the bioluminescent assay (conclusion in words) (firefly luciferase [2]; PCMPSA alone, sample 5, buffer): does not substantially interfere

apyrase
RLU after 0 min [3]: 64594 RLU
RLU after 2.5 min. [3]: 3272 RLU
RLU after 5 min [3]: 1130 RLU
RLU after 20 min [3]: 243 RLU
